In patent US6737383B1, “Herbicidal oxadiazolidines” (priority 1999, dated 2004):

Experiments:
blackgrass = assay: Test B pre/postemergence blackgrass; type: in vivo, Alopecurus myosuroides
Method in brief: (§1)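 Test chemicals in a non-phytotoxic solvent mixture with surfactant were sprayed preemergence onto planted seeds and postemergence onto plants 2 to 18 cm tall (1- to 4-leaf stage). After twelve to sixteen days in a greenhouse, injury was visually rated against untreated controls from 0 (no effect) to 10 (complete control).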

surinam grass = assay: Test B pre/postemergence surinam grass; type: in vivo, Brachiaria decumbens
Method in brief: as §1

cocklebur = assay: Test B pre/postemergence cocklebur; type: in vivo, Xanthium strumarium
Method in brief: as §1

corn = assay: Test B pre/postemergence corn; type: in vivo, Zea mays
Method in brief: as §1

crabgrass = assay: Test B pre/postemergence crabgrass; type: in vivo, Digitaria sanguinalis
Method in brief: as §1

giant foxtail = assay: Test B pre/postemergence giant foxtail; type: in vivo, Setaria faberii
Method in brief: as §1

pigweed = assay: Test B pre/postemergence pigweed; type: in vivo, Amaranthus retroflexus
Method in brief: as §1

rape = assay: Test B pre/postemergence rape; type: in vivo, Brassica napus
Method in brief: as §1

soybean = assay: Test B pre/postemergence soybean; type: in vivo, Glycine max
Method in brief: as §1

sugar beet = assay: Test B pre/postemergence sugar beet; type: in vivo, Beta vulgaris
Method in brief: as §1

wheat = assay: Test B pre/postemergence wheat; type: in vivo, Triticum aestivum
Method in brief: as §1

purple nutsedge = assay: Test B pre/postemergence purple nutsedge; type: in vivo, Cyperus rotundus
Method in brief: as §1

rice = assay: Test B flood test rice; type: in vivo, Oryza sativa
Method in brief: (§2)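 Flood test on plants grown to the 2-leaf stage; treated plants kept in greenhouse twelve to sixteen days, then visually rated against controls on a 0 (no effect) to 10 (complete control) scale.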

smallflower flatsedge = assay: Test B flood test smallflower flatsedge; type: in vivo, Cyperus difformis
Method in brief: as §2

duck salad = assay: Test B flood test duck salad; type: in vivo, Heteranthera limosa
Method in brief: as §2

bamyardgrass = assay: Test B flood test barnyardgrass; type: in vivo, Echinochloa crus-galli
Method in brief: as §2

[1] = Postemergence, Rate 62 g/ha, scale 0 to 10, 0 is no effect, 10 is complete control
[2] = Postemergence, Rate 125 g/ha, scale of 0 to 10 where 0 is no effect and 10 is complete control
[3] = Postemergence, Rate 250 g/ha, scale of 0 to 10, 0 is no effect, 10 is complete control
[4] = Preemergence, Rate 62 g/ha, scale of 0 to 10 where 0 is no effect and 10 is complete control
[5] = Preemergence, Rate 125 g/ha, scale of 0 to 10 where 0 is no effect and 10 is complete control
[6] = Preemergence, Rate 250 g/ha, scale 0 to 10 (0 no effect, 10 complete control)
[7] = Preemergence, Rate 500 g/ha, scale of 0 to 10 where 0 is no effect and 10 is complete control
[8] = Rate 500 g/ha, Postemergence, scale 0 to 10, 0 is no effect, 10 is complete control
[9] = Rate 62 g/ha, flood test species, Pre-emergence, visual evaluation after twelve to sixteen days
[10] = Rate 125 g/ha, under heading Pre-emergence, flood test species, visual evaluation after twelve to sixteen days
[11] = Rate 250 g/ha, Pre-emergence (flood test species), scale 0 to 10, 0 is no effect, 10 is complete control
[12] = Rate 500 g/ha, Pre-emergence section of Table B, 0 to 10 scale (0 no effect, 10 complete control)

CC(C)N(C(=O)n1oc(=O)n(CCF)c1=O)c1ccc(Cl)cc1 [Compound 668]
Plant response rating, Blackgrass (blackgrass; [1]): 7 | Blackgrass plant response rating (blackgrass; [2]): 8 | Blackgrass plant response rating (blackgrass; [3]): 8 | Blackgrass plant response rating (blackgrass; [4]): 6 | Blackgrass plant response rating (blackgrass; [5]): 8 | Plant response rating, Blackgrass (blackgrass; [6]): 10 | Plant response rating, Blackgrass (blackgrass; [7]): 10 | Blackgrass plant response rating (blackgrass; [8]): 9 | Plant response rating, B. signalgrass (surinam grass; [1]): 1 | Plant response rating, B. signalgrass (surinam grass; [2]): 2 | B. signalgrass plant response rating (surinam grass; [3]): 4 | B. signalgrass plant response rating (surinam grass; [4]): 5 | B. signalgrass plant response rating (surinam grass; [5]): 8 | Plant response rating, B. signalgrass (surinam grass; [6]): 8 | Plant response rating, B. signalgrass (surinam grass; [7]): 9 | B. signalgrass plant response rating (surinam grass; [8]): 5 | Plant response rating, Cocklebur (cocklebur; [1]): 0 | Cocklebur plant response rating (cocklebur; [2]): 0 | Cocklebur plant response rating (cocklebur; [3]): 2 | Cocklebur plant response rating (cocklebur; [4]): 0 | Cocklebur plant response rating (cocklebur; [5]): 0 | Plant response rating, Cocklebur (cocklebur; [6]): 0 | Plant response rating, Cocklebur (cocklebur; [7]): 0 | Cocklebur plant response rating (cocklebur; [8]): 2 | Plant response rating, Corn (corn; [1]): 0 | Corn plant response rating (corn; [2]): 0 | Corn plant response rating (corn; [3]): 3 | Corn plant response rating (corn; [4]): 0 | Plant response rating, Corn (corn; [6]): 4 | Plant response rating, Corn (corn; [7]): 9 | Corn plant response rating (corn; [8]): 3 | Plant response rating, Crabgrass (crabgrass; [1]): 6 | Crabgrass plant response rating (crabgrass; [2]): 9 | Crabgrass plant response rating (crabgrass; [3]): 9 | Crabgrass plant response rating (crabgrass; [4]): 8 | Crabgrass plant response rating (crabgrass; [5]): 8 | Plant response rating, Crabgrass (crabgrass; [6]): 8 | Plant response rating, Crabgrass (crabgrass; [7]): 8 | Crabgrass plant response rating (crabgrass; [8]): 10 | Plant response rating, Giant foxtail (giant foxtail; [1]): 8 | Giant foxtail plant response rating (giant foxtail; [2]): 9 | Giant foxtail plant response rating (giant foxtail; [3]): 9 | Giant foxtail plant response rating (giant foxtail; [4]): 9 | Giant foxtail plant response rating (giant foxtail; [5]): 9 | Plant response rating, Giant foxtail (giant foxtail; [6]): 9 | Plant response rating, Giant foxtail (giant foxtail; [7]): 10 | Giant foxtail plant response rating (giant foxtail; [8]): 9 | Plant response rating, Redroot pigweed (pigweed; [1]): 3 | Redroot pigweed plant response rating (pigweed; [2]): 5 | Redroot pigweed plant response rating (pigweed; [4]): 0 | Redroot pigweed plant response rating (pigweed; [5]): 7 | Plant response rating, Redroot pigweed (pigweed; [6]): 10 | Plant response rating, Redroot pigweed (pigweed; [7]): 10 | Redroot pigweed plant response rating (pigweed; [8]): 7 | Plant response rating, Rape (rape; [1]): 2 | Rape plant response rating (rape; [2]): 3 | Rape plant response rating (rape; [4]): 0 | Rape plant response rating (rape; [5]): 5 | Plant response rating, Rape (rape; [6]): 8 | Plant response rating, Rape (rape; [7]): 9 | Rape plant response rating (rape; [8]): 4 | Plant response rating, Soybean (soybean; [1]): 2 | Soybean plant response rating (soybean; [2]): 2 | Soybean plant response rating (soybean; [4]): 0 | Soybean plant response rating (soybean; [5]): 1 | Plant response rating, Soybean (soybean; [6]): 1 | Plant response rating, Soybean (soybean; [7]): 6 | Soybean plant response rating (soybean; [8]): 6 | Plant response rating, Sugarbeets (sugar beet; [1]): 0 | Sugarbeets plant response rating (sugar beet; [2]): 0 | Sugarbeets plant response rating (sugar beet; [4]): 0 | Sugarbeets plant response rating (sugar beet; [5]): 6 | Plant response rating, Sugarbeets (sugar beet; [6]): 6 | Plant response rating, Sugarbeets (sugar beet; [7]): 9 | Sugarbeets plant response rating (sugar beet; [8]): 6 | Plant response rating, Wheat (wheat; [1]): 0 | Wheat plant response rating (wheat; [2]): 0 | Wheat plant response rating (wheat; [4]): 0 | Wheat plant response rating (wheat; [5]): 0 | Plant response rating, Wheat (wheat; [6]): 5 | Plant response rating, Wheat (wheat; [7]): 7 | Wheat plant response rating (wheat; [8]): 0 | Plant response rating, Nutsedge (purple nutsedge; [1]): 0 | Nutsedge plant response rating (purple nutsedge; [2]): 0 | Nutsedge plant response rating (purple nutsedge; [4]): 0 | Nutsedge plant response rating (purple nutsedge; [5]): 0 | Plant response rating, Nutsedge (purple nutsedge; [6]): 0 | Plant response rating, Nutsedge (purple nutsedge; [7]): 0 | Nutsedge plant response rating (purple nutsedge; [8]): 0 | Plant response rating, Rice (0 to 10 scale, 0 is no effect, 10 is complete control) (rice; [9]): 0 | Rice plant response rating (0 to 10 scale, 0 is no effect, 10 is complete control) (rice; [10]): 0 | Rice plant response rating (rice; [11]): 0 | Rice plant response rating (rice; [12]): 0 | Plant response rating, S. Flatsedge (0 to 10 scale, 0 is no effect, 10 is complete control) (smallflower flatsedge; [9]): 0 | S. Flatsedge plant response rating (0 to 10 scale, 0 is no effect, 10 is complete control) (smallflower flatsedge; [10]): 0 | S. Flatsedge plant response rating (smallflower flatsedge; [11]): 0 | S. Flatsedge plant response rating (smallflower flatsedge; [12]): 0 | Plant response rating, Ducksalad (0 to 10 scale, 0 is no effect, 10 is complete control) (duck salad; [9]): 0 | Ducksalad plant response rating (0 to 10 scale, 0 is no effect, 10 is complete control) (duck salad; [10]): 0 | Ducksalad plant response rating (duck salad; [11]): 0 | Ducksalad plant response rating (duck salad; [12]): 0 | Plant response rating, Barnyardgrass (0 to 10 scale, 0 is no effect, 10 is complete control) (bamyardgrass; [9]): 0 | Barnyardgrass plant response rating (0 to 10 scale, 0 is no effect, 10 is complete control) (bamyardgrass; [10]): 0 | Barnyardgrass plant response rating (bamyardgrass; [11]): 0 | Barnyardgrass plant response rating (bamyardgrass; [12]): 0
